The values below come from ChEMBL document CHEMBL1201862, “PubChem BioAssay data set” (2004).

Structures are written as SMILES.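 Values below derive from 48-hour exposures of cells grown in 96-well plates, with endpoints linearly interpolated between the two concentrations bracketing the appropriate inhibition level. The concentration for 50% growth inhibition is given as GI50.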 Active and inactive are the calls of the source. No stated cut-off is given here; in the data, active = GI50 up to about 1.1 µM and inactive = higher. Where only a bound is given, the exact number is not on record here.

Holding throughout (experiment): NCI-60 cell line screen, 48 h
Assay [1] relates to NCI/ADR-RES.
Assay [2] deals with OVCAR-3.
Assay [3] relates to ACHN.
In assay [4] the test system is SK-MEL-5.
The test system of assay [5] is NCI-H23.
Assay [6] has as its system A549.
Assay [7] has as its system TK-10.
For assay [8], the system named is HOP-92.
Assay [9] has as its system PC-3.
Assay [10] deals with UO-31.
The test system of assay [11] is SW-620.
Assay [12] concerns MDA-MB-435.
Assay [13] relates to OVCAR-4.
Assay [14] concerns NCI-H522.
The test system of assay [15] is COLO 205.
Assay [16] concerns EKVX.
For assay [17], the system named is RPMI-8226.
Assay [18] deals with 786-0.
Assay [19] deals with UACC-62.
The subject of assay [20] is NCI-H226.

For the compound `O=C(O)CSc1ccc(N=C=S)cc1`, the GI50 in assay [1] was > 100 µM (inactive); in assay [2], 94 µM (inactive); in [3], > 100 µM (inactive); in assay [4] it was 37.8 µM (inactive); in [5] it was 78.9 µM (inactive); in [6], > 100 µM (inactive). Moreover, the GI50 in [7] was 75 µM (inactive); in [8], > 100 µM (inactive); in [9], 73.3 µM (inactive); in assay [10], > 100 µM (inactive); in assay [11], > 100 µM (inactive); in [12] it was 81.8 µM (inactive). Further, the GI50 in assay [13] is > 100 µM (inactive); in [14], 19.1 µM (inactive); in [15], 53.2 µM (inactive); in assay [16], > 100 µM (inactive); in assay [17], 20.8 µM (inactive); in [18], 82.6 µM (inactive). Further, the GI50 in assay [19] is 61 µM (inactive); in assay [20], 54.5 µM (inactive).
As for `N#CC1=C2SCCN2C(=O)C(C#N)C12CCCCC2` (stereo not given), the GI50 in assay [1], in assay [2], in assay [3], in assay [4], in assay [5] and in [6] was > 100 µM (inactive) throughout. The GI50 in assay [7], in assay [8], in assay [9], in [10], in [11] and in assay [12] was > 100 µM (inactive) in each case. Moreover, the GI50 in assay [13], in assay [14], in assay [15], in [16], in [17] and in [18] was > 100 µM (inactive) in each case. Besides, the GI50 in assay [19] and in assay [20] was > 100 µM (inactive) each time.
`Cc1c2ccccc2c(CSC(=N)N)c2ccccc12`: the GI50 is 0.234 µM (active) in assay [1]; 0.264 µM (active) in assay [2]; 0.0728 µM (active) in assay [3]; 0.162 µM (active) in [4]; 0.106 µM (active) in assay [5]; 0.216 µM (active) in [6]. In addition, the GI50 in [7] is 0.222 µM (active); in assay [8], 0.29 µM (active); in assay [9] it was 0.23 µM (active); in assay [10], 0.181 µM (active); in assay [11] it was 0.121 µM (active); in assay [12], 0.181 µM (active). In addition, the GI50 in assay [13] was 0.174 µM (active); in assay [14] it was 0.0348 µM (active); in assay [15] it was 0.14 µM (active); in [16], 0.304 µM (active); in assay [17], 0.0841 µM (active); in [18] it was 0.143 µM (active). Further, the results for the GI50 in assay [19] and in assay [20] were 0.181 µM (active) and 0.247 µM (active), respectively.
Turning to `CC(=O)c1ccc2c3c1[C@@H]1O[C@@H]1c1cccc(c1-3)[C@@H]1O[C@H]21`, the GI50 was 13.7 µM (inactive) in assay [1]; 13.5 µM (inactive) in assay [2]; 21.6 µM (inactive) in assay [3]; 11.7 µM (inactive) in assay [4]; 7 µM (inactive) in [5]; 14.5 µM (inactive) in [6]. The GI50 in assay [7] was 20.7 µM (inactive); in assay [8], 13.3 µM (inactive); in assay [9], 17.3 µM (inactive); in assay [10], 6.84 µM (inactive); in assay [11] it was 2.54 µM (inactive); in [12], 6.92 µM (inactive). In addition, the GI50 was 13.6 µM (inactive) in [13]; 5.4 µM (inactive) in [14]; 9.79 µM (inactive) in assay [15]; 16.4 µM (inactive) in assay [16]; 5.05 µM (inactive) in [17]; 5.6 µM (inactive) in [18]. For the same compound, the GI50 in assay [19] is 14 µM (inactive); in assay [20], 37.8 µM (inactive).
As to `C=CC1(c2ccc(Br)cc2)OCCCO1`, the GI50 in [1], in assay [2], in [3], in [4], in [5] and in [6] was > 100 µM (inactive) throughout. For the same compound, the GI50 in assay [7], in assay [8], in assay [9], in assay [10], in [11] and in assay [12] was > 100 µM (inactive) in each case. For the same compound, the GI50 in [13], in assay [14], in assay [15], in assay [16], in assay [17] and in [18] was > 100 µM (inactive) throughout. Moreover, the GI50 in assay [19] and in [20] was > 100 µM (inactive) throughout.
With `COc1ccc(-n2c(N)c(C#N)c(C#N)c2-c2ccccc2)cc1`, the GI50 was > 100 µM (inactive) in assay [1]; > 100 µM (inactive) in [2]; > 100 µM (inactive) in assay [3]; 51.6 µM (inactive) in assay [4]; > 100 µM (inactive) in assay [5]; > 100 µM (inactive) in assay [6]. In addition, the GI50 in assay [7] is > 100 µM (inactive); in [8], 10.1 µM (inactive); in assay [9] it was 19.8 µM (inactive); in assay [10], > 100 µM (inactive); in assay [11] it was > 100 µM (inactive); in [12], > 100 µM (inactive). Also, the GI50 in assay [13] is 15.1 µM (inactive); in [14] it was 59.4 µM (inactive); in [15], > 100 µM (inactive); in [16] it was > 100 µM (inactive); in assay [17] it was > 100 µM (inactive); in [18] it was 45.3 µM (inactive). In addition, the GI50 in assay [19] was 10.7 µM (inactive); in assay [20], 13.8 µM (inactive).
`CC(=O)Oc1c(-c2ccccc2)oc2ccccc12`: the GI50 is 2.66 µM (inactive) in [1]; 2.12 µM (inactive) in assay [2]; 1.79 µM (inactive) in assay [3]; 1.35 µM (inactive) in assay [4]; 1.77 µM (inactive) in assay [5]; 1.51 µM (inactive) in assay [6]. The GI50 in assay [7] is 3.73 µM (inactive); in assay [8], 2.4 µM (inactive); in assay [9], 1.53 µM (inactive); in [10] it was 1.61 µM (inactive); in [11], 3.1 µM (inactive); in assay [12], 2.43 µM (inactive). Further, the GI50 in [13] is 3.19 µM (inactive); in assay [14], 2.3 µM (inactive); in assay [15], 1.9 µM (inactive); in assay [16] it was 2.06 µM (inactive); in assay [17] it was 0.813 µM (active); in assay [18], 4.02 µM (inactive). Besides, the GI50 in assay [19] is 3.13 µM (inactive); in [20], 2.07 µM (inactive).
`CCCCN(C)C(=O)C1=C(C)NC(C)=C(C(=O)N(C)CCCC)C1`: the GI50 in [1], in assay [2], in assay [3], in assay [4], in assay [5] and in assay [6] was > 100 µM (inactive) in each case. Also, the GI50 in assay [7] was > 100 µM (inactive); in [8], > 100 µM (inactive); in assay [9], > 100 µM (inactive); in assay [10] it was 61.1 µM (inactive); in assay [11], > 100 µM (inactive); in assay [12], > 100 µM (inactive). For the same compound, the GI50 in [13], in [14], in assay [15], in assay [16], in assay [17] and in assay [18] was > 100 µM (inactive) throughout. The GI50 in [19] and in assay [20] was > 100 µM (inactive) in each case.
As for `CCCCc1ccc(Nc2cc(=O)n(C)c(=O)[nH]2)cc1`, the GI50 is 57.4 µM (inactive) in assay [1]; > 100 µM (inactive) in [2]; > 100 µM (inactive) in [3]; > 100 µM (inactive) in [4]; > 100 µM (inactive) in assay [5]; > 100 µM (inactive) in assay [6]. Further, the GI50 in [7] was > 100 µM (inactive); in [8], 26.7 µM (inactive); in assay [9], 91.2 µM (inactive); in [10] it was > 100 µM (inactive); in [11] it was > 100 µM (inactive); in [12] it was > 100 µM (inactive). Further, the GI50 was 32.8 µM (inactive) in assay [13]; > 100 µM (inactive) in assay [14]; > 100 µM (inactive) in assay [15]; > 100 µM (inactive) in [16]; > 100 µM (inactive) in [17]; > 100 µM (inactive) in assay [18]. The GI50 in assay [19] and in assay [20] was > 100 µM (inactive) in each case.
`CC(=O)Oc1ccc(-c2nnc(-c3ccc(OC(C)=O)cc3)nn2)cc1`: the GI50 in [1] is 38.8 µM (inactive); in assay [2], > 100 µM (inactive); in assay [3] it was 59 µM (inactive); in [4], > 100 µM (inactive); in [5], > 100 µM (inactive); in assay [6], > 100 µM (inactive). The GI50 in assay [7] was > 100 µM (inactive); in [8], > 100 µM (inactive); in assay [9] it was > 100 µM (inactive); in assay [10] it was 64 µM (inactive); in assay [11], > 100 µM (inactive); in assay [12], > 100 µM (inactive). The GI50 was > 100 µM (inactive) in assay [13]; > 100 µM (inactive) in [14]; > 100 µM (inactive) in assay [15]; 70.5 µM (inactive) in assay [16]; > 100 µM (inactive) in assay [17]; > 100 µM (inactive) in assay [18]. Also, the GI50 in assay [19] and in assay [20] was > 100 µM (inactive) in each case.
